Reference: PubChem BioAssay (NCI)
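Assay format: 96-well plates, 48-hour exposure. GI50 is the concentration that inhibits growth by half. TGI: total growth inhibition.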

What was measured:
Assay in all cases: DTP human tumour cell line panel, 48 h
TK-10 renal = system: TK-10 renal
MDA-N = system: MDA-N
MDA-MB-435 = system: MDA-MB-435
LOX IMVI melanoma = system: LOX IMVI melanoma
OVCAR-4 ovarian = system: OVCAR-4 ovarian
NCI-H460 lung = system: NCI-H460 lung
KM12 colon = system: KM12 colon
RPMI-8226 leukemia = system: RPMI-8226 leukemia
SF-268 CNS = system: SF-268 CNS
NCI-H226 lung = system: NCI-H226 lung

Row | SMILES | TGI (TK-10 renal) [µM] | TGI (MDA-N) [µM] | TGI (MDA-MB-435) [µM] | TGI (LOX IMVI melanoma) [µM] | TGI (OVCAR-4 ovarian) [µM] | TGI (NCI-H460 lung) [µM] | TGI (KM12 colon) [µM] | TGI (RPMI-8226 leukemia) [µM] | TGI (SF-268 CNS) [µM] | TGI (NCI-H226 lung) [µM] | GI50 (MDA-MB-435) [µM] | GI50 (LOX IMVI melanoma) [µM] | GI50 (OVCAR-4 ovarian) [µM] | GI50 (KM12 colon) [µM] | GI50 (RPMI-8226 leukemia) [µM] | GI50 (SF-268 CNS) [µM] | GI50 (NCI-H226 lung) [µM]
1 | C=C(C)[C@@H]1CCC2=C(CC[C@]3(C)[C@@H]([C@@H](CCC=C(C)C)C(=O)O)[C@H](O)C[C@@]23C)[C@@]1(C)CCC(=O)O | > 100 | > 100 | > 100 | > 100 | > 100 | > 100 | > 100 | > 100 | > 100 | > 100 |  |  |  |  |  |  | 
2 | Cc1cc(N)c2cc(NC(=O)Nc3ccc4nc(C)cc(N)c4c3)ccc2n1 | > 100 | > 100 | > 100 | > 100 | > 100 | > 100 | > 100 | > 100 | > 100 | > 100 |  |  |  |  |  |  | 
3 | COc1cc(C2c3cc4c(cc3OC(NNc3ccccc3)C2C)OCO4)cc(OC)c1O (configuration not stated) | 23.6 | 2.75 | 3.96 | 19 | 38.2 | 17.7 | 12 | 9.78 | 27.4 | 14.6 |  |  |  |  |  |  | 
4 | CC(=O)CC12NC(=O)N(C)N=C1N(C)C(=O)N(C)C2=O (configuration not stated) | > 100 | 43.3 | 31 | 40.8 | > 100 | > 100 | > 100 | > 100 | > 100 | > 100 |  |  |  |  |  |  | 
5 | O=C(c1cccnc1)N1N=C(c2ccc3c(c2)OCO3)CC1(O)c1cc(F)c(Cl)cc1Cl (configuration not stated) | > 100 | > 100 | > 100 | 30.5 | > 100 | 36.9 | > 100 | > 100 | 49.8 | 33.3 |  |  |  |  |  |  | 
6 | N#Cc1c(O)c(C=O)c(=O)n2c1[nH]c1ccccc12 | > 100 | > 100 | > 100 | > 100 | > 100 | > 100 | > 100 | > 100 | > 100 | > 100 |  |  |  |  |  |  | 
7 | O=C1C(=O)N(C23CC4CC(CC(C4)C2)C3)C(=S)N1c1ccccc1 | > 100 | > 100 | > 100 | > 100 | > 100 | > 100 | > 100 | > 100 | > 100 | > 100 |  |  |  |  |  |  | 
8 | CCOC(=O)C(NC(=O)c1ccccc1)(Nc1ccc(S(=O)(=O)Nc2ccc(OC)nn2)cc1)C(F)(F)F (configuration not stated) | > 100 | > 100 | > 100 | > 100 | > 100 | > 100 | > 100 | > 100 | > 100 | > 100 |  |  |  |  |  |  | 
9 | CN(C)CCCN=c1c2ccccc2n(C)c2[nH]c(=O)n(C)c(=O)c12 | 25.7 | 16.2 | 16.8 | 39.1 | 36.2 | 11.5 | 42.4 | > 54.4 | > 46.6 | 18.4 |  |  |  |  |  |  | 
10 | CCOC(=O)[C@H](CO)Nc1c(O)c2c(c(O)c1Cl)C(=O)C=CC2=O | > 10 | > 10 | > 10 | > 10 | > 10 | > 10 | > 10 | > 10 | > 10 | > 10 |  |  |  |  |  |  | 
11 | COc1cc(/C=C/c2ccc(S(N)(=O)=O)cc2)cc(OC)c1 | 53.9 | 56 | 40 | 34 | 50.9 | 42.9 | 57.6 | 31.5 | > 100 | 38.1 | 18.7 | 18.2 | 21.2 | 20.8 | 14.3 | 28.3 | 12.3
12 | CCOP(=O)(OCC)C(C)(CC)/N=C(\N)NC#N (configuration not stated) | > 100 | > 100 | > 100 | > 100 | > 100 | > 100 | > 100 | > 100 | > 100 | > 100 |  |  |  |  |  |  | 
13 | O=C(NCCCc1cn[nH]c(=O)n1)c1cccc2nc3ccccc3nc12 | > 100 | > 100 | > 100 | > 100 | > 100 | > 100 | > 100 | > 100 | > 100 | > 100 |  |  |  |  |  |  | 
14 | NCCN(CCN)/[N+]([O-])=N/O | > 100 | > 100 | > 100 | > 100 | > 100 | > 100 | > 100 | > 100 | > 100 | > 100 |  |  |  |  |  |  | 
15 | COC(=O)CN(CC1O[C@@H]2OC(C)(C)O[C@@H]2C1NC(C)=O)C(=O)OCc1ccccc1 (some centres not stated) | > 100 | > 100 | > 100 | > 100 | > 100 | > 100 | > 100 | > 100 | > 100 | > 100 |  |  |  |  |  |  | 
